{"source": "ChEMBL document CHEMBL5104218", "about": "“Effects of 6-Aminonicotinic Acid Esters on the Reprogrammed Epigenetic State of Distant Metastatic Pancreatic Carcinoma” (ACS Med Chem Lett, 2022)", "key": {"[1]": {"target": "T1, 6-phosphogluconate dehydrogenase, decarboxylating (Homo sapiens) (UniProt P52209)", "T1 sequence (whole entry)": "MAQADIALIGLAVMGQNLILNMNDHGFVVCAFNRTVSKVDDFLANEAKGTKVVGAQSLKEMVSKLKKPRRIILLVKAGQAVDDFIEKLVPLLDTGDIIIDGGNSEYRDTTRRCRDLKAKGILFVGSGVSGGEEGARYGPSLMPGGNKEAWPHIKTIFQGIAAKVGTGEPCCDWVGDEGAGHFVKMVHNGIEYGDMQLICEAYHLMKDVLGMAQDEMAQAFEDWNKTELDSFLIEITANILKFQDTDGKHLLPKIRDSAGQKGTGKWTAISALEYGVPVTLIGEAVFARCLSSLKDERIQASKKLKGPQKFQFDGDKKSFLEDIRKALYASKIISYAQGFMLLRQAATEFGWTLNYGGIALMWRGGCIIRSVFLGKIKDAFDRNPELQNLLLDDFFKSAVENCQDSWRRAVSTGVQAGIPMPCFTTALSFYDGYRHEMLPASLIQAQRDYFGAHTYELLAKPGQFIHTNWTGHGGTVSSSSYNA", "experiment": "Inhibition of 6PGD in human A38-5 cells assessed as increase in intracellular H3K9me3 level at 0.1 to 1000 uM incubated for 45 mins by HTRF assay", "format": "cell-based", "settings": "dose 0.1-1000 µM"}, "[2]": {"target": "T1, 6-phosphogluconate dehydrogenase, decarboxylating (Homo sapiens)", "experiment": "Inhibition of 6PGD in human A38-5 cells assessed as increase in Ru-5-P level at 250 uM incubated for 72 hrs by mass spectrometry", "format": "cell-based"}, "[3]": {"target": "T1, 6-phosphogluconate dehydrogenase, decarboxylating (Homo sapiens)", "experiment": "Inhibition of 6PGD in human A38-5 cells assessed as fold increase in intracellular H3K9me3 level at 250 uM incubated for 45 mins by HTRF assay", "format": "cell-based"}, "[4]": {"target": "Glucose-6-phosphate 1-dehydrogenase (Homo sapiens) (UniProt P11413)", "sequence (P11413 whole entry)": "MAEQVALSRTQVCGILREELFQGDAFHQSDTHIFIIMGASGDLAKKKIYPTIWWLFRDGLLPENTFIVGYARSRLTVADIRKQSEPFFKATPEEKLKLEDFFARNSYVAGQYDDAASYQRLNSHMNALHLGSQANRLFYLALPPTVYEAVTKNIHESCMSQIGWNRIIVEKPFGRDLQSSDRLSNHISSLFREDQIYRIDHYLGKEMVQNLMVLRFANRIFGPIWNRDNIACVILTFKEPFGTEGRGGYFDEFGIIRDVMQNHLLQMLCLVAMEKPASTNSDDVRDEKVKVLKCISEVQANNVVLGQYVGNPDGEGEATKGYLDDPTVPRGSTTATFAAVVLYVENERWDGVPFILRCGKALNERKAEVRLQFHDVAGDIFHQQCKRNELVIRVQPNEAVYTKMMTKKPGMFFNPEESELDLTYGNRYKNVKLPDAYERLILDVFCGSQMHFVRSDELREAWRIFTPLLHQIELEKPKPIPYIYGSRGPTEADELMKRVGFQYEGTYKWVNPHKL", "experiment": "Inhibition of G6PD in human A38-5 cells assessed as fold increase in G6P level at 250 uM incubated for 72 hrs by mass spectrometry", "format": "cell-based"}, "[5]": {"experiment": "Neurotoxicity against Sprague-Dawley rat Primary hippocampal neuron assessed as increase in TUNEL positive cells at 5 uM incubated for 24 hrs by TUNEL staining based microscopy", "format": "toxicity, cell-based", "settings": "hippocampal neurone"}, "[6]": {"experiment": "Neurotoxicity against Sprague-Dawley rat Primary hippocampal neuron assessed as increase in TUNEL positive cells at 50 uM incubated for 24 hrs by TUNEL staining based microscopy", "format": "toxicity, cell-based", "settings": "hippocampal neurone"}, "[7]": {"target": "T1, 6-phosphogluconate dehydrogenase, decarboxylating (Homo sapiens)", "experiment": "Inhibition of 6PGD in human A38-5 cells assessed as fold increase in 6PG level at 250 uM incubated for 72 hrs by mass spectrometry", "format": "cell-based"}, "[8]": {"target": "T1, 6-phosphogluconate dehydrogenase, decarboxylating (Homo sapiens)", "experiment": "Inhibition of 6PGD in human A38-5 cells assessed as increase in intracellular H3K9me3 expression level at 1 to 250 uM incubated for 72 hrs by western blot analysis", "format": "cell-based", "settings": "dose 1-250 µM"}, "[9]": {"target": "T1, 6-phosphogluconate dehydrogenase, decarboxylating (Homo sapiens)", "experiment": "Inhibition of 6PGD in human A38-5 cells assessed as increase in Ru-5-P level at 15.6 uM incubated for 72 hrs by mass spectrometry", "format": "cell-based"}, "[10]": {"target": "Glucose-6-phosphate 1-dehydrogenase (Homo sapiens) (UniProt P11413)", "experiment": "Inhibition of G6PD in human A38-5 cells assessed as fold increase in G6P level at 15.6 uM incubated for 72 hrs by mass spectrometry", "format": "cell-based"}, "[11]": {"target": "T1, 6-phosphogluconate dehydrogenase, decarboxylating (Homo sapiens)", "experiment": "Inhibition of 6PGD in human A38-5 cells assessed as increase in intracellular H3K9me3 level at 1 uM incubated for 45 mins by HTRF assay", "format": "cell-based"}, "A38-5": {"test_system": "A38-5", "experiment": "Cytotoxicity against human A38-5 cells assessed as reduction in cell viability at 0.06 to 250 uM incubated for 72 hrs by CellTiter-Glo assay relative to 6AN", "format": "functional, cell-based", "settings": "dose 0.06-250 µM"}, "[12]": {"target": "T1, 6-phosphogluconate dehydrogenase, decarboxylating (Homo sapiens)", "experiment": "Inhibition of 6PGD in human A38-5 cells assessed as fold increase in 6PG level at 15.6 uM incubated for 72 hrs by mass spectrometry", "format": "cell-based"}, "[13]": {"target": "T2, 6-phosphogluconate dehydrogenase, decarboxylating (Rattus norvegicus, UniProt P85968)", "T2 sequence (P85968 whole entry)": "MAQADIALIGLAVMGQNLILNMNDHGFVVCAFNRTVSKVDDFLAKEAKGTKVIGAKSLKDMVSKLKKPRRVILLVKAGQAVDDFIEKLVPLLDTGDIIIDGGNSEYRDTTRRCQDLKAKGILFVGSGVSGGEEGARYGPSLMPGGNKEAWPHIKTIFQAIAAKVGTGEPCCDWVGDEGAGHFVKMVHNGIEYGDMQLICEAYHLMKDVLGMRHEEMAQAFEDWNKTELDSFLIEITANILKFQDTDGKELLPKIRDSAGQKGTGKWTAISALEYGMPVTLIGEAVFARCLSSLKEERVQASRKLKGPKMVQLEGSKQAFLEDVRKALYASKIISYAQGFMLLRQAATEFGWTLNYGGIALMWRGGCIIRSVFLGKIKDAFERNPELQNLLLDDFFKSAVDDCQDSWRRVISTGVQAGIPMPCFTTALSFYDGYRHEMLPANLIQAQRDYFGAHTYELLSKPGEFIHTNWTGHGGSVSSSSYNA", "experiment": "Inhibition of rat 6PGD by spectrophotometric method"}, "[14]": {"target": "Glucose-6-phosphate 1-dehydrogenase (Rattus norvegicus, UniProt P05370)", "sequence (P05370 whole entry)": "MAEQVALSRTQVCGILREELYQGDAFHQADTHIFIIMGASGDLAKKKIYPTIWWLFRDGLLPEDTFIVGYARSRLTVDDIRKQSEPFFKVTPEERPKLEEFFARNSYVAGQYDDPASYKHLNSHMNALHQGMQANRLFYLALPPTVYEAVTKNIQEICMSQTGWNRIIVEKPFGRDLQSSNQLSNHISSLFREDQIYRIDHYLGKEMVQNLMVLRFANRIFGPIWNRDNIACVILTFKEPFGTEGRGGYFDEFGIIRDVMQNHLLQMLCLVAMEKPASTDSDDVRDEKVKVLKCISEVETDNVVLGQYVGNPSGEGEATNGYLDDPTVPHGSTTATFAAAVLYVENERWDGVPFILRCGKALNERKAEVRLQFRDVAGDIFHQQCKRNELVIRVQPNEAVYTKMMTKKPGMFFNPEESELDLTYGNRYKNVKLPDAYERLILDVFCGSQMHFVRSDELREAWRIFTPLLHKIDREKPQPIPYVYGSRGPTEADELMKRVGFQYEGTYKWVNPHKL", "experiment": "Inhibition of rat G6PD by spectrophotometric method"}, "[15]": {"target": "T2, 6-phosphogluconate dehydrogenase, decarboxylating", "experiment": "Inhibition of rat 6PGD assessed as inhibition constant by spectrophotometric method"}, "Glutathione reductase": {"target": "T3, Glutathione reductase (Rattus norvegicus, UniProt P70619)", "T3 sequence (P70619 whole entry)": "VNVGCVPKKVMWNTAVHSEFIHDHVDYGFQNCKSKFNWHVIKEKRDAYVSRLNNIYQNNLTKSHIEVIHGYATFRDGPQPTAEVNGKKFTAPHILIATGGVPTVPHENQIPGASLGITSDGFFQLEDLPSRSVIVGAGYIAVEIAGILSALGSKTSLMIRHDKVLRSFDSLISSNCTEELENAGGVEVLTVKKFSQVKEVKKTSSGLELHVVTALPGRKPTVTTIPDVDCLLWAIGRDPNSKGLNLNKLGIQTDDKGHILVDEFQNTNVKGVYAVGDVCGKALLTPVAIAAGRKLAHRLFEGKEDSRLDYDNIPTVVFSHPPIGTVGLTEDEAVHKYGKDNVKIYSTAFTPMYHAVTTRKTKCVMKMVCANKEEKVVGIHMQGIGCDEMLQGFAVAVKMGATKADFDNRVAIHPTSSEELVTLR", "experiment": "Inhibition of rat glutathione reductase by spectrophotometric method"}}, "note": "pIC50, pKi: −log10 of the molar value. Active and inactive are the calls of the source. The rule behind the calls is not given here."}
{"molecule": "CCOC(=O)OCOC(=O)c1ccc(N)nc1", "values": [{"measurement": "activity outcome (qualitative)", "setting": "[1]; DDE = dose-dependent effect", "result": "Dde"}]}
{"molecule": "CCCC(=O)OCOC(=O)c1ccc(N)nc1", "values": [{"measurement": "activity outcome (qualitative)", "setting": "[1]", "result": "Active"}]}
{"molecule": "NC(=O)c1ccc(N)nc1", "note": "[6-AMINONICOTINAMIDE]", "values": [{"measurement": "inhibition", "setting": "[2]", "result": "Active"}, {"measurement": "fold change (FC)", "setting": "[3]", "result": 2.5}, {"measurement": "fold change (FC)", "setting": "[4]", "result": 2}, {"measurement": "Activity", "setting": "[5]", "result": "Toxic"}, {"measurement": "activity outcome (qualitative)", "setting": "[1]; DDE = dose-dependent effect", "result": "Dde"}, {"measurement": "Activity", "setting": "[6]", "result": "Toxic"}, {"measurement": "fold change (FC)", "setting": "[7]", "result": 150}]}
{"molecule": "CC(OC(=O)OC1CCCCC1)OC(=O)c1ccc(N)nc1", "note": "(stereo not given)", "values": [{"measurement": "inhibition", "setting": "[8]", "result": "Active"}, {"measurement": "inhibition", "setting": "[9]", "result": "Active"}, {"measurement": "Activity", "setting": "[5]", "result": "Non-Toxic"}, {"measurement": "activity outcome (qualitative)", "setting": "[1]; DDE = dose-dependent effect", "result": "Dde"}, {"measurement": "Activity", "setting": "[6]", "result": "Non-Toxic"}, {"measurement": "fold change (FC)", "setting": "[10]", "result": 2}, {"measurement": "inhibition", "setting": "[11]", "result": "Active"}, {"measurement": "Activity", "setting": "A38-5", "result": "Active"}, {"measurement": "fold change (FC)", "setting": "[12]", "result": 150}]}
{"molecule": "NC(=O)c1ccc(N)[n+]([C@@H]2O[C@H](COP(=O)(O)OP(=O)(O)OC[C@H]3O[C@@H](n4cnc5c(N)ncnc54)[C@H](OP(=O)(O)O)[C@@H]3O)[C@@H](O)[C@H]2O)c1", "values": [{"measurement": "pIC50", "setting": "[13]", "result": 6.70}, {"measurement": "pIC50", "setting": "[14]", "result": 4.15}, {"measurement": "pKi", "setting": "[15]", "result": 7.00}, {"measurement": "pIC50", "setting": "Glutathione reductase", "result": 4.34}]}
{"molecule": "CCOC(=O)OC(C)OC(=O)c1ccc(N)nc1", "note": "(stereo not given)", "values": [{"measurement": "activity outcome (qualitative)", "setting": "[1]; DDE = dose-dependent effect", "result": "Dde"}]}
{"molecule": "CC(C)C(=O)OCOC(=O)c1ccc(N)nc1", "values": [{"measurement": "activity outcome (qualitative)", "setting": "[1]", "result": "Active"}]}
{"molecule": "CC(=O)OCOC(=O)c1ccc(N)nc1", "values": [{"measurement": "activity outcome (qualitative)", "setting": "[1]", "result": "Active"}]}
